Twelve compounds from PMC4264242, “Androgen Receptor Antagonists and Anti-Prostate Cancer Activities of Some Newly Synthesized Substituted Fused Pyrazolo-, Triazolo- and Thiazolo-Pyrimidine Derivatives” (International Journal of Molecular Sciences, 2014) can be followed below.

“Also recorded” adds a separate entry of the source.

The nature of data set [1]: Acute toxicity (LD50) in rats. To be noted: rat, in vivo, rats injected with increasing doses. How it is done: The LD50 was determined by using rats injected with different increasing doses of the synthesized compounds. The dose that killed 50% of the animals was calculated according to Austen and Brocklehurst (Table 4).
Data set [2] concerns the target T1, mutant AR in LNCaP cells (Homo sapiens, UniProt P10275, T878A).
T1 construct: endogenous in cells; host or cells: LNCaP cells (only reporter plasmids transfected)
T1 sequence (P10275 1-920 T878A): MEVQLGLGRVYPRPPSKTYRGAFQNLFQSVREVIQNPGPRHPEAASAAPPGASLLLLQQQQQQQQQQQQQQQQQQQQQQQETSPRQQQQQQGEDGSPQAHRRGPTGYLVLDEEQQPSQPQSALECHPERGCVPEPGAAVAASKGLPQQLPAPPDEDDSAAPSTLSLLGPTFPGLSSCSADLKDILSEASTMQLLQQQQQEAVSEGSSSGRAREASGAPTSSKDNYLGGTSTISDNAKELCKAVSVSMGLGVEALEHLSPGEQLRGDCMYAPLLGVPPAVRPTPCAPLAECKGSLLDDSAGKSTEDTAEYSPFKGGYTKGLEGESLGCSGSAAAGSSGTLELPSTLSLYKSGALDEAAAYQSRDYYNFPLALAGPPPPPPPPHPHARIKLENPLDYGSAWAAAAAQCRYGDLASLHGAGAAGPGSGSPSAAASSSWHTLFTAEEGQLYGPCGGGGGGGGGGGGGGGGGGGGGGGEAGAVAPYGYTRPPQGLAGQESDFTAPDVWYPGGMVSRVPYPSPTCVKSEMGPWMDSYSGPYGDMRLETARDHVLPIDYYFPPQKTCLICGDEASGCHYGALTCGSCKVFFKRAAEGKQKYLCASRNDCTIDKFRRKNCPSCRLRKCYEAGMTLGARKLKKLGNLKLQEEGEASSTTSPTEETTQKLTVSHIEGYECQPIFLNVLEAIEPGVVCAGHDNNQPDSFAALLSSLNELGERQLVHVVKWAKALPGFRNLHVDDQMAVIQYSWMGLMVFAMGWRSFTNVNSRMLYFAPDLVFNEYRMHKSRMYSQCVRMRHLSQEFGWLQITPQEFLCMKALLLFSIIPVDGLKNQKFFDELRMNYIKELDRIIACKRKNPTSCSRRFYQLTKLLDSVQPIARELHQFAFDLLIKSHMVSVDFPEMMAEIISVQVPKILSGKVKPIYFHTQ
The experiment in a line: Anti-prostate cancer screening, anti-androgenic bioassay (AR transactivation) in LNCaP cells. Format: cell-based. Particulars: 1 nM DHT, 24 h. On the procedure: Human prostate cancer LNCaP and PC-3 cells were maintained in RPMI medium and Dulbecco’s minimum essential medium (DMEM), respectively. Both media were supplemented with penicillin (25 units/mL), streptomycin ([…]), and 10% fetal calf serum. For the androgen receptor transactivation assay, an androgen-dependent reporter gene transcription test was employed as the primary screening for potential anti-androgen identification. This assay was first performed in LNCaP cells, which express a clinically relevant mutant AR. […] Wild type AR transactivation assay was performed in PC-3 host cells, which lack an endogenous, functional AR. The method and conditions of cell and gene transfection have been described previously. In brief, cells were plated in 24-well tissue culture dishes for 24 (PC-3 cells) or 48 (LNCaP cells) h prior to transfection. Subsequently, LNCaP cells were transfected with a reporter gene, MMTV-luciferase, which contains a MMTV-long terminal repeat (LTR) promoter and an androgen receptor binding element, and Renilla Luciferase Control Reporter Vectors 40 (PRL-SV40), which served as an internal control for transfection efficiency. PC-3 cells were transfected with a wild type AR expression plasmid, plasmide gene-5 androgen recptor (pSG5AR), in addition to the above-mentioned MMTV-luciferase reporter gene and PRL-SV40 internal control. SuperFect (Qiagen, Chatsworth, CA, USA) was employed as the transfection reagent following the manufacturer’s recommendations. At the end of a 5-h transfection, the medium was changed to DMEM or RPMI supplemented with 10% charcoal dextran-stripped, i.e., androgen-depleted, serum. After 24 h, the cells were treated with 1 nM of DHT and/or test compounds at the designated concentrations.
After 24 h the cells were harvested for luciferase activity assay using the Dual Luciferase Assay System (Promega, Madison, WI, USA.). The derived data was expressed as relative luciferase activity normalized to the internal luciferase control.

For data set [3], the system named is castrated immature rats. In words: In vivo anti-androgenic activity in castrated immature rats treated with testosterone propionate. On the set-up: species or system rat. Particulars: for ED50: Rattus norvegicus, read-out: ED50, in vivo anti-androgen activity; for % (Inhibition), in vivo anti-androgen activity: inhibition of TP effect (TP 0.5 mg/kg s.c. once daily for 5 days), tested compound 10-30 mg/kg p.o. An excerpt: […] male Wistar rats were obtained from the Animal House Colony, Research Institute of Ophthalmology, Giza, Egypt. Prepubertal male rats aged 3 weeks were castrated using the scrotal route under ether anesthesia.

Setting [4] is: other: injected (kind of injection not stated).

Compound `Nc1nc(=S)[nH]c2c1cnn2-c1nc2c(ccc3ccccc32)s1` [Compound 5, 2-[6-Amino-3H-4-thiopyrimidino[4,5-c]pyrazol-2-yl]naphthalino[1,2-d]thiazole] gave a median lethal dose (LD50) in data set [1] (other: injected) of 267 mg/kg. The compound also yielded an IC50 in data set [2] of 0.0643 µM. In data set [3], the ED50 worked out at 0.089 mg/kg and the “% (Inhibition), in vivo anti-androgen activity” value (from here on “% (Inhibition)”) is given as 89.09%.

Take `N=c1c2cnn(-c3nc4c(ccc5ccccc54)s3)c2ncn1NC(=O)c1ccccc1` [Compound 11]: the LD50 in data set [1] (setting [4]) came to 325 mg/kg. The IC50 in data set [2] was found to be 0.0616 µM. In data set [3], the ED50 turned out to be 0.045 mg/kg and the “% (Inhibition)” value was determined as 90.01%.

Consider `CCOC1SCC2NC(=O)c3cnn(-c4nc5c(ccc6ccccc65)s4)c3N21` (stereo not shown) [Compound 13, 2-[3-Ethoxy-5-dihydro-6H-7-oxo-[1,3]thiazolo[3,4-b]pyrimidino[4,5-c]pyrazol-2-yl]naphthalino[1,2-d]thiazole], for which the LD50 in data set [1] (other: injected) is 443 mg/kg. The same compound displayed an IC50 in data set [2] of 0.0496 µM. For the same compound, in data set [3], the ED50 was 0.047 mg/kg and the “% (Inhibition)” value was determined as 97.56%.

The compound `NNc1nc2c(ccc3ccccc32)s1` [Compound 1, 1-(naphtho[1,2-d]thiazol-2-yl)hydrazine] registered a median lethal dose (LD50) in data set [1] (other: injected) of 1160 mg/kg. For the same compound, in data set [2], the “IC50 LNCaP, anti-prostate cancer activity” value was “devoid from any activities; also recorded: Inactive”. Also, the “ED50, in vivo anti-androgen activity” value in data set [3] (castrated immature rats, TP 0.5 mg/kg s.c., compound p.o.) is given as “Inactive”. In addition, the “% (Inhibition)” value in data set [3] is recorded as “Inactive”; in data set [3] (listed as compound 1), “devoid from any activities”.

`Nc1n[nH]c2c1cnn2-c1nc2c(ccc3ccccc32)s1` [Compound 4] yielded a 50% lethal dose (LD50) in data set [1] (setting [4]) of 266 mg/kg. Further, the 50% inhibitory concentration (IC50) in data set [2] was found to be 0.0566 µM. Further, in data set [3], the ED50 was determined as 0.051 mg/kg and the “% (Inhibition)” value was 93.98%.

For `CCOC1SCC(=O)N1c1c(C#N)cnn1-c1nc2c(ccc3ccccc32)s1` (stereo not shown) [Compound 12, 2-[3-(2-Ethoxy-4-oxo-5-dihydro-1,3-thiazol-3-yl)-4-cyanopyrazol-2-yl]-naphthalino[1,2-d]thiazole], the LD50 in data set [1] (other: injected) is 234 mg/kg. It took 0.08 µM to reach half-maximal inhibition in data set [2] (IC50). Also, in data set [3], the ED50 is 0.098 mg/kg and the “% (Inhibition)” value came to 84.65%.

`N=c1sc(=S)[nH]c2c1cnn2-c1nc2c(ccc3ccccc32)s1` [Compound 6, 2-[6-Imino-3H-4-thiothiazino[4,5-c]pyrazol-2-yl]naphthalino[1,2-d]thiazole] came in with a median lethal dose (LD50) in data set [1] (other: injected) of 258 mg/kg. Also, the midpoint of inhibition in data set [2], the IC50, lay at 0.0724 µM. Also, in data set [3], the 50% effective dose (ED50) came out at 0.092 mg/kg and the “% (Inhibition)” value stood at 88.76%.

`Nc1ncnc2c1cnn2-c1nc2c(ccc3ccccc32)s1` [Compound 3] registered a 50% lethal dose (LD50) in data set [1] (setting [4]) of 175 mg/kg. Also, the IC50 in data set [2] was 0.0586 µM. Besides, in data set [3], the median effective dose (ED50) turned out to be 0.063 mg/kg and the “% (Inhibition)” value was determined as 91%.

The compound `CCO/C=N\c1c(C#N)cnn1-c1nc2c(ccc3ccccc32)s1` [Compound 8, 2-[3-Ethylimidoformat-4-cyanopyrazol-2-yl]naphthalino[1,2-d]thiazole] displayed a median lethal dose (LD50) in data set [1] (other: injected) of 236 mg/kg. This compound also showed a half-inhibitory concentration (IC50) in data set [2] of 0.0785 µM. For the same compound, in data set [3], the 50% effective dose (ED50) came out at 0.097 mg/kg and the “% (Inhibition)” value amounted to 85.43%.

In turn, `N#Cc1cnn(-c2nc3c(ccc4ccccc43)s2)c1/N=C\NN` [Compound 9, 2-[3-Imidoformic hydrazido-4-cyanopyrazol-2-yl]naphthalino[1,2-d]thiazole] returned an LD50 in data set [1] (other: injected) of 125 mg/kg. In data set [2], half-maximal inhibition (IC50) was put at 0.0766 µM. Moreover, in data set [3], the median effective dose (ED50) was found to be 0.095 mg/kg and the “% (Inhibition)” value was found to be 86.56%.

As to `N#Cc1cnn(-c2nc3c(ccc4ccccc43)s2)c1N` [Compound 2, 2-[3-Amino-4-cyanopyrazol-2-yl]naphthalino[1,2-d]thiazole], in data set [1] (other: injected), the LD50 stood at 163 mg/kg. This compound registered a half-inhibitory concentration (IC50) in data set [2] of 0.0515 µM. Besides, in data set [3], the 50% effective dose (ED50) came out at 0.049 mg/kg and the “% (Inhibition)” value was 95.49%.

With `Cc1nc2c3cnn(-c4nc5c(ccc6ccccc65)s4)c3ncn2n1` [Compound 10, 2-[6-Methyl[1,2,4]triazolo[2,3-c]pyrimidino[6,5-c]pyrazol-2-yl]naphthalino[1,2-d]thiazole], the median lethal dose (LD50) in data set [1] (other: injected) stood at 316 mg/kg. Moreover, in data set [2], 0.0435 µM corresponded to half-maximal inhibition (IC50). For the same compound, in data set [3], the ED50 was 0.071 mg/kg and the “% (Inhibition)” value was found to be 98.87%.

Broadly, the LD50 is the dose expected to kill half of the subjects tested. Low values mean greater toxicity, high ones lower toxicity. Broadly, the IC50 is the concentration needed to halve the response being measured. Low values mean inhibition by little substance, high ones a need for much substance. Usually ED50 stands for the dose at which the effect has come halfway, by size or by number of responders.
